Measurements from PubChem BioAssay AID1963971 (Molecular Pharmacology Branch, DTP, NCI, 2024).

Tested on: 953936-095-R-J2-PDC spheroids with HUVEC/MSC, viability
Assay: Anticancer human tumor 953936-095-R-J2-PDC patient-derived cervical squamous cell carcinoma cell line growth inhibition [PI3K]
Conditions: for IC50: curve of first compound; for viability, T/C: stronger effect = lower value
Outline: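 Multi-cell spheroids combine tumor cells with HUVEC and human MSCs, treated with targeted agents alone or with inavolisib, alpelisib, duvelisib or copanlisib. Concentrations fall in half-log steps from at or near clinical Cmax, or from 10 microM where Cmax is unknown; viability read-out.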

[1] = second compound 0.0316 µM, first compound 0.0316 µM
[2] = second compound 0.0316 µM, first compound 0.1 µM
[3] = second compound 0.1 µM, first compound 0.0316 µM
[4] = second compound 0.1 µM, first compound 0.1 µM
[5] = second compound 0.316 µM, first compound 0.0316 µM
[6] = second compound 0.316 µM, first compound 0.1 µM
[7] = second compound 1 µM, first compound 0.0316 µM
[8] = second compound 1 µM, first compound 0.1 µM
[9] = second compound 3.16 µM, first compound 0.0316 µM
[10] = second compound 3.16 µM, first compound 0.1 µM
[11] = second compound 10 µM, first compound 0.0316 µM
[12] = second compound 10 µM, first compound 0.1 µM
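Also: spheroids exposed to compounds for seven days before read-out.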

For CC(C)n1nc(-c2ccc3oc(N)nc3c2)c2c(N)ncnc21 + Cc1nc(NC(=O)N2CCCC2C(N)=O)sc1-c1ccnc(C(C)(C)C(F)(F)F)c1, the IC50 (second compound 0.0316 µM) was 24.3 nM, the IC50 (second compound 0.1 µM) was 18.7 nM and the IC50 (second compound 0.316 µM) was 7.32 nM. The IC50 (second compound 1 µM) was under 0.316 nM, the IC50 (second compound 3.16 µM) was under 0.316 nM and the IC50 (second compound 10 µM) was under 0.316 nM. The viability, T/C (second compound 0.0316 µM, first compound 0.000316 µM) was 83%, the viability, T/C (second compound 0.0316 µM, first compound 0.001 µM) was 86.6% and the viability, T/C (second compound 0.0316 µM, first compound 0.00316 µM) was 78.5%. The viability, T/C (second compound 0.0316 µM, first compound 0.01 µM) was 68.2%, the viability, T/C [1] was 44.8% and the viability, T/C [2] was 16.1%. The viability, T/C (second compound 0.1 µM, first compound 0.000316 µM) was 78.4%, the viability, T/C (second compound 0.1 µM, first compound 0.001 µM) was 74.6% and the viability, T/C (second compound 0.1 µM, first compound 0.00316 µM) was 69.2%. It also gave a viability, T/C (second compound 0.1 µM, first compound 0.01 µM) of 64.1%, a viability, T/C [3] of 39.2% and a viability, T/C [4] of 15.2%. It also gave a viability, T/C (second compound 0.316 µM, first compound 0.000316 µM) of 66%, a viability, T/C (second compound 0.316 µM, first compound 0.001 µM) of 60.7% and a viability, T/C (second compound 0.316 µM, first compound 0.00316 µM) of 56.8%. It also gave a viability, T/C (second compound 0.316 µM, first compound 0.01 µM) of 48.7%, a viability, T/C [5] of 30.8% and a viability, T/C [6] of 11.8%. It also gave a viability, T/C (second compound 1 µM, first compound 0.000316 µM) of 45.9%, a viability, T/C (second compound 1 µM, first compound 0.001 µM) of 42.9% and a viability, T/C (second compound 1 µM, first compound 0.00316 µM) of 38.4%. The viability, T/C (second compound 1 µM, first compound 0.01 µM) was 33.9%, the viability, T/C [7] was 19.7% and the viability, T/C [8] was 8.92%. The viability, T/C (second compound 3.16 µM, first compound 0.000316 µM) was 26%, the viability, T/C (second compound 3.16 µM, first compound 0.001 µM) was 24.1% and the viability, T/C (second compound 3.16 µM, first compound 0.00316 µM) was 21.5%. It also gave a viability, T/C (second compound 3.16 µM, first compound 0.01 µM) of 18.3%, a viability, T/C [9] of 10.8% and a viability, T/C [10] of 5.88%. It also gave a viability, T/C (second compound 10 µM, first compound 0.000316 µM) of 11.7%, a viability, T/C (second compound 10 µM, first compound 0.001 µM) of 10.8% and a viability, T/C (second compound 10 µM, first compound 0.00316 µM) of 10.2%. The viability, T/C (second compound 10 µM, first compound 0.01 µM) was 9.27%, the viability, T/C [11] was 6.73% and the viability, T/C [12] was 3.32%.
CCCS(=O)(=O)Nc1ccc(F)c(C(=O)c2c[nH]c3ncc(-c4ccc(Cl)cc4)cc23)c1F + Cc1nc(NC(=O)N2CCCC2C(N)=O)sc1-c1ccnc(C(C)(C)C(F)(F)F)c1 was tested, and the IC50 (second compound 0.0316 µM) was 5030 nM, the IC50 (second compound 0.1 µM) was 4880 nM and the IC50 (second compound 0.316 µM) was 4280 nM. The IC50 (second compound 1 µM) was under 31.6 nM, the IC50 (second compound 3.16 µM) was under 31.6 nM and the IC50 (second compound 10 µM) was under 31.6 nM. It also gave a viability, T/C [1] of 90.7%, a viability, T/C [2] of 95.1% and a viability, T/C (second compound 0.0316 µM, first compound 0.316 µM) of 95.8%. The viability, T/C (second compound 0.0316 µM, first compound 1 µM) was 99.2%, the viability, T/C (second compound 0.0316 µM, first compound 3.16 µM) was 83.2% and the viability, T/C (second compound 0.0316 µM, first compound 10 µM) was 0.75%. For the same compound, the viability, T/C [3] was 82.6%, the viability, T/C [4] was 88.3% and the viability, T/C (second compound 0.1 µM, first compound 0.316 µM) was 86.1%. It also gave a viability, T/C (second compound 0.1 µM, first compound 1 µM) of 92.9%, a viability, T/C (second compound 0.1 µM, first compound 3.16 µM) of 80% and a viability, T/C (second compound 0.1 µM, first compound 10 µM) of 0.68%. The viability, T/C [5] was 64.6%, the viability, T/C [6] was 65.1% and the viability, T/C (second compound 0.316 µM, first compound 0.316 µM) was 66.9%. The viability, T/C (second compound 0.316 µM, first compound 1 µM) was 73.8%, the viability, T/C (second compound 0.316 µM, first compound 3.16 µM) was 68.2% and the viability, T/C (second compound 0.316 µM, first compound 10 µM) was 0.57%. The viability, T/C [7] was 46.6%, the viability, T/C [8] was 45.9% and the viability, T/C (second compound 1 µM, first compound 0.316 µM) was 47%. For the same compound, the viability, T/C (second compound 1 µM, first compound 1 µM) was 50.2%, the viability, T/C (second compound 1 µM, first compound 3.16 µM) was 37.3% and the viability, T/C (second compound 1 µM, first compound 10 µM) was 0.59%. The viability, T/C [9] was 26.6%, the viability, T/C [10] was 26.2% and the viability, T/C (second compound 3.16 µM, first compound 0.316 µM) was 27.5%. The viability, T/C (second compound 3.16 µM, first compound 1 µM) was 25.5%, the viability, T/C (second compound 3.16 µM, first compound 3.16 µM) was 20.2% and the viability, T/C (second compound 3.16 µM, first compound 10 µM) was 1.4%. For the same compound, the viability, T/C [11] was 11.7%, the viability, T/C [12] was 12.8% and the viability, T/C (second compound 10 µM, first compound 0.316 µM) was 13.7%. It also gave a viability, T/C (second compound 10 µM, first compound 1 µM) of 14.2%, a viability, T/C (second compound 10 µM, first compound 3.16 µM) of 9.62% and a viability, T/C (second compound 10 µM, first compound 10 µM) of 0.42%.
